Assay: xn = mol fraction of the nth substance listed, in the solute-free solvent

CCCCCOC(=O)Nc1nc(=O)n(C2OC(C)C(O)C2O)cc1F (stereo unspecified) + CCOC(C)=O + CCCCCC
solubility (g/100 g solution)
Details | 278.15 K | 283.15 K | 288.15 K | 293.15 K | 298.15 K | 303.15 K | 308.15 K | 313.15 K | 318.15 K | 323.15 K
x2 = 0.09988 | 0.0133 | 0.0183 | 0.0254 | 0.0345 | 0.0462 | 0.0616 | 0.0815 | 0.107 | 0.139 | 0.18
x2 = 0.2008 | 0.0154 | 0.0212 | 0.0286 | 0.0382 | 0.0506 | 0.0664 | 0.0863 | 0.111 | 0.143 | 0.181
x2 = 0.3 | 0.0501 | 0.0621 | 0.0766 | 0.0936 | 0.113 | 0.137 | 0.165 | 0.197 | 0.233 | 0.276
x2 = 0.4 | 0.113 | 0.134 | 0.159 | 0.219 | 0.187 | 0.255 | 0.296 | 0.341 | 0.392 | 0.448
x2 = 0.5003 | 0.141 | 0.171 | 0.207 | 0.248 | 0.296 | 0.351 | 0.413 | 0.484 | 0.565 | 0.655
x2 = 0.6 | 0.309 | 0.384 | 0.474 | 0.581 | 0.706 | 0.853 | 1.02 | 1.22 | 1.45 | 1.71
x2 = 0.6998 | 0.423 | 0.535 | 0.67 | 0.833 | 1.03 | 1.26 | 1.53 | 1.85 | 2.22 | 2.65
x2 = 0.7998 | 0.53 | 0.694 | 0.902 | 1.16 | 1.48 | 1.87 | 2.34 | 2.91 | 3.58 | 4.39
x2 = 0.8999 | 0.819 | 1.09 | 1.43 | 1.85 | 2.38 | 3.04 | 3.84 | 4.8 | 5.96 | 7.33

CCC(C)n1ncn(-c2ccc(N3CCN(c4ccc(OCC5COC(Cn6cncn6)(c6ccc(Cl)cc6Cl)O5)cc4)CC3)cc2)c1=O (stereo unspecified) + ClC(Cl)Cl + CCCCO
solubility (g/100 g solution)
Details | x2 = 0.06524 | x2 = 0.1357 | x2 = 0.2121 | x2 = 0.2952 | x2 = 0.3858 | x2 = 0.4851 | x2 = 0.5945 | x2 = 0.7153 | x2 = 0.8497
288.15 K | 0.0548 | 0.12 | 0.336 | 0.987 | 3.22 | 7.01 | 12 | 17.9 | 23.9
293.15 K | 0.0651 | 0.142 | 0.387 | 1.18 | 3.56 | 7.85 | 13.2 | 18.9 | 24.8
298.15 K | 0.0777 | 0.171 | 0.445 | 1.39 | 3.92 | 8.74 | 14.3 | 20.1 | 25.6
303.15 K | 0.0924 | 0.202 | 0.509 | 1.65 | 4.3 | 9.68 | 15.4 | 21.3 | 26.5
308.15 K | 0.109 | 0.237 | 0.583 | 1.93 | 4.71 | 10.7 | 16.6 | 22.4 | 27.4

CN1CCN(C2=Nc3cc(Cl)ccc3Nc3ccccc32)CC1 + CS(C)=O + O
solubility (g/100 g solution)
Details | 293.15 K | 298.15 K | 303.15 K | 308.15 K | 313.15 K | 318.15 K | 323.15 K | 328.15 K | 333.15 K
x2 = 0.02501 | 0.0367 | 0.0478 | 0.0615 | 0.0795 | 0.0996 | 0.126 | 0.159 | 0.2 | 0.249
x2 = 0.05457 | 0.375 | 0.473 | 0.591 | 0.724 | 0.873 | 1.06 | 1.28 | 1.54 | 1.84
x2 = 0.09003 | 1.33 | 1.64 | 1.96 | 2.36 | 2.78 | 3.26 | 3.88 | 4.56 | 5.3
x2 = 0.1334 | 3.26 | 3.82 | 4.52 | 5.18 | 6.01 | 6.93 | 8.01 | 9.03 | 10.2
x2 = 0.1876 | 5.71 | 6.6 | 7.64 | 8.74 | 9.88 | 11.3 | 12.7 | 14.2 | 15.7
x2 = 0.2572 | 9.16 | 10.5 | 12.1 | 13.6 | 15.4 | 17.2 | 19.1 | 21.3 | 23.4
x2 = 0.3501 | 12.9 | 14.6 | 16.6 | 18.6 | 20.7 | 23.1 | 25.5 | 27.9 | 30.5
x2 = 0.4801 | 16.2 | 18.2 | 20.4 | 22.7 | 25.2 | 27.9 | 30.6 | 33.4 | 36.3
x2 = 0.6751 | 18.4 | 20.7 | 23.2 | 25.8 | 28.6 | 31.3 | 34.3 | 37.4 | 40.4
